Test results as given in PubChem BioAssay (NCI).
“And” between values parts separate entries of the source, which are not always exact repeats. Identical values can stand only once.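 Five compound concentrations were applied to cells in 96-well plates for 48 hours; endpoints were derived by simple linear interpolation of the resulting dose-response curve. At the GI50, growth is halved. TGI: total growth inhibition.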

Assays:
Experiment in all cases: growth of human tumour cells (NCI), 48 h
DMS 114 small cell lung = system: DMS 114 small cell lung
NCI-H23 lung = system: NCI-H23 lung
SNB-78 CNS = system: SNB-78 CNS
HOP-92 NSCLC = system: HOP-92 NSCLC
DMS 273 small cell lung = system: DMS 273 small cell lung
UACC-257 melanoma = system: UACC-257 melanoma
M19-MEL melanoma = system: M19-MEL melanoma
DLD-1 colon = system: DLD-1 colon
KM20L2 colon = system: KM20L2 colon
786-0 renal = system: 786-0 renal
PC-3 prostate = system: PC-3 prostate

Cc1ccc2[nH]c3c(C)c4ccncc4c(C)c3c2c1 was tested, and the TGI (DMS 114 small cell lung) was 2.71 µM, the TGI (NCI-H23 lung) was 2.98 µM and the TGI (SNB-78 CNS) was 4.64 µM. The TGI (HOP-92 NSCLC) was 3.09 µM, the TGI (DMS 273 small cell lung) was 2.13 µM and the TGI (UACC-257 melanoma) was 2.94 µM. The TGI (M19-MEL melanoma) was 2.75 µM, the TGI (DLD-1 colon) was 2.34 µM and the TGI (KM20L2 colon) was 5.57 µM.

In the case of CC(=O)c1cccc(NC2C(N)C(NC(=O)N(C)C)(C(C)O)C(C)(O)C2(O)COC(=O)c2c(C)cccc2O)c1 (stereo not drawn), the TGI (DMS 114 small cell lung) was 0.0855 µM, the TGI (786-0 renal) was 0.0146 µM and the TGI (SNB-78 CNS) was 0.0541 µM. For the same compound, the GI50 (UACC-257 melanoma) was 31.4 nM, the TGI (M19-MEL melanoma) was 0.203 µM and the TGI (KM20L2 colon) was 0.372 µM.

Nc1ccn(C2OC(COP(=O)(O)Oc3ccccc3)C(O)C2O)c(=O)n1 (stereo not drawn) showed a TGI (DMS 114 small cell lung) greater than 100 µM, a TGI (NCI-H23 lung) greater than 100 µM and a TGI (SNB-78 CNS) greater than 100 µM. It also gave a TGI (HOP-92 NSCLC) greater than 100 µM, a TGI (DMS 273 small cell lung) greater than 100 µM and a TGI (UACC-257 melanoma) greater than 100 µM. It also gave a TGI (M19-MEL melanoma) greater than 100 µM, a TGI (DLD-1 colon) greater than 100 µM and a TGI (KM20L2 colon) greater than 100 µM.

Cc1nc(-c2nc([N+](=O)[O-])c([N+](=O)[O-])[nH]2)cs1 was tested, and the TGI (DMS 114 small cell lung) was greater than 100 µM, the TGI (NCI-H23 lung) was greater than 100 µM and the TGI (SNB-78 CNS) was greater than 100 µM. The TGI (HOP-92 NSCLC) was greater than 100 µM, the TGI (DMS 273 small cell lung) was greater than 100 µM and the TGI (UACC-257 melanoma) was greater than 100 µM. It also gave a TGI (M19-MEL melanoma) greater than 100 µM, a TGI (DLD-1 colon) greater than 100 µM and a TGI (KM20L2 colon) greater than 100 µM.

CC(=O)Oc1c(OC(C)=O)c(-c2ccc(O)c(O)c2)c(O)c(O)c1-c1ccc(O)cc1 was tested, and the GI50 (DMS 114 small cell lung) was 19.1 µM, the TGI (DMS 114 small cell lung) was 44 µM and 57.4 µM and the TGI (NCI-H23 lung) was greater than 100 µM. For the same compound, the GI50 (SNB-78 CNS) was greater than 100 µM, the TGI (SNB-78 CNS) was greater than 100 µM and the GI50 (HOP-92 NSCLC) was 60.8 µM. For the same compound, the TGI (HOP-92 NSCLC) was > 100 µM and 96.6 µM, the GI50 (DMS 273 small cell lung) was 67.1 µM and the TGI (DMS 273 small cell lung) was greater than 100 µM. For the same compound, the TGI (UACC-257 melanoma) was greater than 100 µM, the GI50 (M19-MEL melanoma) was 18.1 µM and the TGI (M19-MEL melanoma) was 53.7 µM and 68.5 µM. The TGI (DLD-1 colon) was greater than 100 µM, the GI50 (KM20L2 colon) was 40.7 µM and the TGI (KM20L2 colon) was greater than 100 µM.

O=C1OC(CN2CCN(c3ccccc3)CC2)CN1C(=S)Nc1ccccc1 (stereo not drawn) was tested, and the TGI (786-0 renal) was greater than 100 µM, the TGI (NCI-H23 lung) was greater than 100 µM and the TGI (PC-3 prostate) was greater than 100 µM. It also gave a TGI (HOP-92 NSCLC) greater than 100 µM and a TGI (UACC-257 melanoma) greater than 100 µM.

In the case of NC(=O)N(O)c1cccc(Br)c1, the TGI (786-0 renal) was greater than 100 µM, the TGI (NCI-H23 lung) was greater than 100 µM and the TGI (PC-3 prostate) was greater than 100 µM. The TGI (HOP-92 NSCLC) was greater than 100 µM and the TGI (UACC-257 melanoma) was greater than 100 µM.

Compound CCN(CC)CCNc1ccc(C)c2sc3ccc(O)cc3c(=O)c12 has a TGI (DMS 114 small cell lung) of 2.27 µM, a TGI (786-0 renal) of 2.01 µM and a TGI (NCI-H23 lung) of 14 µM. For the same compound, the TGI (SNB-78 CNS) was 7.88 µM, the TGI (HOP-92 NSCLC) was 7.17 µM and the TGI (DMS 273 small cell lung) was 1.91 µM. The TGI (UACC-257 melanoma) was 2.99 µM, the TGI (M19-MEL melanoma) was 2.36 µM and the TGI (DLD-1 colon) was 3.47 µM. The TGI (KM20L2 colon) was 5.46 µM.

Cc1ccc(S(=O)(=O)N/N=C2\C=C[C@]3(CC2)C(=O)N(C)c2ccccc23)cc1 was tested, and the TGI (786-0 renal) was greater than 100 µM, the TGI (NCI-H23 lung) was greater than 100 µM and the TGI (PC-3 prostate) was greater than 100 µM. The TGI (HOP-92 NSCLC) was greater than 100 µM and the TGI (UACC-257 melanoma) was greater than 100 µM.

Work on CC(C)(C)C=C=C(C(C)(C)C)P(=O)(O)O yielded a TGI (786-0 renal) greater than 100 µM, a TGI (NCI-H23 lung) greater than 100 µM and a TGI (PC-3 prostate) greater than 100 µM. The TGI (HOP-92 NSCLC) was greater than 100 µM and the TGI (UACC-257 melanoma) was greater than 100 µM.

For N#Cc1c(NC(=S)NCc2ccccc2)sc2c1CCN(N1CCc3c(sc(NC(=S)NCc4ccccc4)c3C#N)C1)C2, the TGI (786-0 renal) was greater than 100 µM, the TGI (NCI-H23 lung) was greater than 100 µM and the TGI (PC-3 prostate) was greater than 100 µM. It also gave a TGI (HOP-92 NSCLC) greater than 100 µM and a TGI (UACC-257 melanoma) greater than 100 µM.

COc1nc(=O)n(C2CC(N=[N+]=[N-])C(CO)O2)cc1C (stereo not drawn) gave a TGI (786-0 renal) greater than 100 µM, a TGI (NCI-H23 lung) greater than 100 µM and a TGI (PC-3 prostate) greater than 100 µM. The TGI (HOP-92 NSCLC) was greater than 100 µM and the TGI (UACC-257 melanoma) was greater than 100 µM.

COc1cc(CC2c3cc(OC)c(OC)cc3CCN2C)c(Oc2cc3c(cc2OC)-c2c(OC)c(OC)c(OC)c4c2C(C3)N(C)CC4)cc1OC (stereo not drawn) showed a TGI (DMS 114 small cell lung) of 26 µM, a TGI (786-0 renal) of 21.5 µM and a TGI (NCI-H23 lung) of 34.9 µM. It also gave a TGI (SNB-78 CNS) of 34.5 µM, a TGI (HOP-92 NSCLC) of 20.9 µM and a TGI (DMS 273 small cell lung) of 26.2 µM. The TGI (UACC-257 melanoma) was 13.6 µM, the TGI (M19-MEL melanoma) was 28.6 µM and the TGI (DLD-1 colon) was 29.8 µM. The TGI (KM20L2 colon) was 17.8 µM.
